Results from ChEMBL document CHEMBL1201862, “PubChem BioAssay data set” (2004).
Activity calls are given as the source filed them.

Legend:
[1] = THP-1 cell cytotoxicity, dose response, cytotoxicity control for non-replicating M. tuberculosis project (AID 489025); type: functional
[2] = HepG2 cell cytotoxicity, dose response, cytotoxicity control for non-replicating M. tuberculosis project (AID 489018); type: functional; settings: Mycobacterium tuberculosis
[3] = molecular target: G-protein coupled receptor 55 (Homo sapiens, UniProt Q9Y2T6); assay: GPR55 antagonists blocking LPI-driven arrestin recruitment, primary screen, imaging, U2OS, beta-arrestin-GFP, LPI agonist (AID 2013); type: functional;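 also: antagonist potency measured as reduced agonist-driven arrestin aggregation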
Chain of G-protein coupled receptor 55 (Q9Y2T6 whole entry): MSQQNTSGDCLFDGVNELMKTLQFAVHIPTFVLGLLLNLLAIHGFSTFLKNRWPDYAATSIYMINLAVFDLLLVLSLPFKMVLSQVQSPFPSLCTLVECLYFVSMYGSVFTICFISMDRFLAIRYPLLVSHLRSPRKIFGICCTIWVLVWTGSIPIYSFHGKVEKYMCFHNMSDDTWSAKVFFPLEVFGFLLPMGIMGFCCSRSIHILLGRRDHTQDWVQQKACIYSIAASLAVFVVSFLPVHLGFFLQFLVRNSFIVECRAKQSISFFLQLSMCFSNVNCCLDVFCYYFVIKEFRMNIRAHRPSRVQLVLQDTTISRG

[4] = molecular target: T1, RNA-editing ligase 1, mitochondrial (Trypanosoma brucei brucei, UniProt P86926); assay: TbREL1 ligase inhibitors, dose response, biochemical, fluorescence, Trypanosoma brucei (AID 1117295); type: functional
T1 sequence (P86926 whole entry): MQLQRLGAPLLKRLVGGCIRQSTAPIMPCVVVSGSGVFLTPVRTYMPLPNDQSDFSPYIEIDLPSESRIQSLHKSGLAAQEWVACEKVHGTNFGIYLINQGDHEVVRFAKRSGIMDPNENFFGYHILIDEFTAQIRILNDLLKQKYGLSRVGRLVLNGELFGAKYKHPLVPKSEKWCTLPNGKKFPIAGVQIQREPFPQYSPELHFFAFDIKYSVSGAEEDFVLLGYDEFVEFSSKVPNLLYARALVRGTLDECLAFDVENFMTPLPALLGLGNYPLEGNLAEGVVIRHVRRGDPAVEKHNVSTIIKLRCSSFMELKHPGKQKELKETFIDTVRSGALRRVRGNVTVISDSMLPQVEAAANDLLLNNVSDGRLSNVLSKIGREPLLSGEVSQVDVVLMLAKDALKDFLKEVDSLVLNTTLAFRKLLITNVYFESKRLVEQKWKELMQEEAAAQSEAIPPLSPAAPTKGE

[5] = (§1) Counterscreen for antagonists of the orexin 1 receptor (OX1R; HCRTR1): Fluorescence-based cell-based high throughput dose response assay to identify antagonists of the parental CHO cell line. [Related pubchem assays (depositor defined):AID434989, AID435008, AID463079, AID485270, AID492963, AID492964, AID492965, AID493232, AID504699, AID504701]; type: functional
[6] = molecular target: T2, Orexin/Hypocretin receptor type 1 (Homo sapiens, UniProt O43613); assay: Homogeneous Time Resolved Fluorescence (HTRF)-based cell-based high throughput dose response assay for antagonists of the orexin 1 receptor (OX1R; HCRTR1). [Related pubchem assays (depositor defined):AID434989, AID435008, AID463079, AID485270, AID492963, AID492964, AID492965, AID493232, AID504717, AID504718]; type: functional
T2 sequence (O43613 whole entry): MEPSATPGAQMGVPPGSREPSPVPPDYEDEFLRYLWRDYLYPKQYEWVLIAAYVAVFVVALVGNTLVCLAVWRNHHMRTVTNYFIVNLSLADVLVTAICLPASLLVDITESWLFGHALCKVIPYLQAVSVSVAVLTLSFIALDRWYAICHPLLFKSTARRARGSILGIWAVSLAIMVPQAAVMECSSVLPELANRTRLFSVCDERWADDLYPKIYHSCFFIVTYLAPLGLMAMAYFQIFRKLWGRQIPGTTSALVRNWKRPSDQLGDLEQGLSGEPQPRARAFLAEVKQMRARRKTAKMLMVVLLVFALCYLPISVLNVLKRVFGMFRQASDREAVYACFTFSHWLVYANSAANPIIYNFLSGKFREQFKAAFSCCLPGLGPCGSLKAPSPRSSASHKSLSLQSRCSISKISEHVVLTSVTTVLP

CHO-K1 = assay: as §1, with “Homogeneous time resolved fluorescence (HTRF)-based” for “Fluorescence-based”, “cell-based” for “cell-based high throughput”, “CHO-K1” for “CHO”; type: functional; settings: Cricetulus griseus;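 also: potency for inhibition of ATP-stimulated IP1 production as antagonists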
cells = type: functional
[7] = molecular target: T2, Orexin/Hypocretin receptor type 1; assay: Fluorescence-based cell-based high throughput dose response assay for antagonists of the orexin 1 receptor (OX1R; HCRTR1). [Related pubchem assays (depositor defined):AID434989, AID435008, AID463079, AID485270, AID492963, AID492964, AID492965, AID493232, AID504717, AID504718]; type: functional
SUMO-activating enzyme = SUMO-activating enzyme (Homo sapiens, UniProt Q9UBT2); assay: SUMOylation inhibitor hit validation, confirmation, SUMOylation inhibitor project, biochemical, AlphaScreen (AID 2018); type: functional
Chain of SUMO-activating enzyme (Q9UBE0 whole entry): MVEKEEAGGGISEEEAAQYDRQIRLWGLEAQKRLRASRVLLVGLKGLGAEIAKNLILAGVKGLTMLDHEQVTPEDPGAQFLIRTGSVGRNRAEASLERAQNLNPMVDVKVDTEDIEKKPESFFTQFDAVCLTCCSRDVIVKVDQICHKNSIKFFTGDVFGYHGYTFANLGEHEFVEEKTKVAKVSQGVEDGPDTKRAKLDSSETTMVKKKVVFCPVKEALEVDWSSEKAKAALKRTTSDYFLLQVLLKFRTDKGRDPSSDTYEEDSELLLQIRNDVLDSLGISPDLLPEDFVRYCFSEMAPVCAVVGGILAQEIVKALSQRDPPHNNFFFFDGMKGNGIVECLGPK
Chain of SUMO-activating enzyme (Q9UBT2 whole entry): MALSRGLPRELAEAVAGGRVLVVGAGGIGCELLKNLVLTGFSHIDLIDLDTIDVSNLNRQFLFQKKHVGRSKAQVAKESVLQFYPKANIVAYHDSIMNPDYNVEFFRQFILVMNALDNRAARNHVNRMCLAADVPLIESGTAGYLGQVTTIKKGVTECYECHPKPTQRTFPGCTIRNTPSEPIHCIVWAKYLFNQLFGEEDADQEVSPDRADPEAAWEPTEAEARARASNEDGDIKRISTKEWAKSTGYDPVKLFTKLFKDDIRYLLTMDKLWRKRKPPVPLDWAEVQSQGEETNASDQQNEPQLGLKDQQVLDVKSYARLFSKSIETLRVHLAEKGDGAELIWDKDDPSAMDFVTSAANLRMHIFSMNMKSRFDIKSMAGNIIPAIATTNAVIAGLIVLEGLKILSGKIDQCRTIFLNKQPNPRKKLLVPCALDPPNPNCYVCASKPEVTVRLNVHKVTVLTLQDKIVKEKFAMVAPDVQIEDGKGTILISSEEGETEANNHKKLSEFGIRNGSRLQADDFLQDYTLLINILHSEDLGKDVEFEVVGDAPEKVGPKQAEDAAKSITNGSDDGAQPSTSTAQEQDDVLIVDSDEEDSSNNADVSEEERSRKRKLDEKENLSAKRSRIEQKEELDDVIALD

[8] = inhibitors of firefly luciferase expression or activity, dose response, H4 neuroglioma cells, luminescence (AID 1990); type: functional, cell-based
[9] = inhibitors of SNCA 5'UTR-driven reporter translation, confirmation, H4 neuroglioma cells, luminescence (AID 1988); type: functional, cell-based
[10] = Luminescence Cell-Based Dose Response HTS to Identify Inhibitors of 5'UTR Stem-Loop Driven Prion Protein mRNA Translation in H4 Neuroglioblastoma Cells. [Related pubchem assays: 1827 (Project Summary), 1813 (Primary HTS)]; type: functional
SUMO E1/E2 = SUMO E1/E2 (Homo sapiens, UniProt P63279+Q9UBE0+Q9UBT2); assay: SAR analysis of SUMOylation using HTRF in an in-Vitro dose response assay. [Related pubchem assays (depositor defined):AID2006, AID2011, AID2018, AID2069, AID2658]; type: functional
Chain of SUMO E1/E2 (Q9UBE0 whole entry): as the sequence (Q9UBE0 whole entry) above
Chain of SUMO E1/E2 (Q9UBT2 whole entry): as the sequence (Q9UBT2 whole entry) above
Chain of SUMO E1/E2 (P63279 whole entry): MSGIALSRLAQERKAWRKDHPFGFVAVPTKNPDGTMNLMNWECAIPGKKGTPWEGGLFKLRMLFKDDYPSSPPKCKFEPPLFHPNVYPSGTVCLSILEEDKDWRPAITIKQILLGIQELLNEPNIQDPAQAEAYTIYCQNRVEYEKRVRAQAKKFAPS

[11] = Counterscreen for AddAB inhibitors: absorbance-based bacterial cell-based high throughput dose response assay for inhibitors of bacterial viability. [Related pubchem assays (depositor defined):AID435030, AID449728, AID449731, AID488942, AID488955, AID488956]; type: functional
Exodeoxyribonuclease V = molecular target: T3, Exodeoxyribonuclease V (Escherichia coli (strain K12), UniProt P04993+P07648+P08394); assay: E. coli RecBCD inhibitors, dose response, counter-screen for AddAB inhibitor project, absorbance, V66 E. coli, mutant T4 phage (AID 492957); type: functional, cell-based, Escherichia coli str. K-12 substr. MG1655
T3 sequence (P04993 whole entry): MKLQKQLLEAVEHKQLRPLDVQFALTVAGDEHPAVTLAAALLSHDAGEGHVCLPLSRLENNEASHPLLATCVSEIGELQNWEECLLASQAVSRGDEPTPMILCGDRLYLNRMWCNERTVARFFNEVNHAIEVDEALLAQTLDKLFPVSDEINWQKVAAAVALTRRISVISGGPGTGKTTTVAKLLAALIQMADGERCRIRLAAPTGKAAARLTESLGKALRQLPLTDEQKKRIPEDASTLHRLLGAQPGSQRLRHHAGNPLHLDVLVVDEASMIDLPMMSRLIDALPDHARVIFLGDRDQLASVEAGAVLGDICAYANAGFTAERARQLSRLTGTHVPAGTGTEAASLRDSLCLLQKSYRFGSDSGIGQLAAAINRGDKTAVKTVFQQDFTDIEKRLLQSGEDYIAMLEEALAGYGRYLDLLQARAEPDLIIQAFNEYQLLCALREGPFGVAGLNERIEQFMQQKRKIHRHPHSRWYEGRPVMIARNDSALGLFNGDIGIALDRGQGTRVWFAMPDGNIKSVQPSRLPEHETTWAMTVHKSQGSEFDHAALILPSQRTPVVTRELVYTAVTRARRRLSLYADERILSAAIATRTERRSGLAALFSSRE
T3 sequence (P07648 whole entry): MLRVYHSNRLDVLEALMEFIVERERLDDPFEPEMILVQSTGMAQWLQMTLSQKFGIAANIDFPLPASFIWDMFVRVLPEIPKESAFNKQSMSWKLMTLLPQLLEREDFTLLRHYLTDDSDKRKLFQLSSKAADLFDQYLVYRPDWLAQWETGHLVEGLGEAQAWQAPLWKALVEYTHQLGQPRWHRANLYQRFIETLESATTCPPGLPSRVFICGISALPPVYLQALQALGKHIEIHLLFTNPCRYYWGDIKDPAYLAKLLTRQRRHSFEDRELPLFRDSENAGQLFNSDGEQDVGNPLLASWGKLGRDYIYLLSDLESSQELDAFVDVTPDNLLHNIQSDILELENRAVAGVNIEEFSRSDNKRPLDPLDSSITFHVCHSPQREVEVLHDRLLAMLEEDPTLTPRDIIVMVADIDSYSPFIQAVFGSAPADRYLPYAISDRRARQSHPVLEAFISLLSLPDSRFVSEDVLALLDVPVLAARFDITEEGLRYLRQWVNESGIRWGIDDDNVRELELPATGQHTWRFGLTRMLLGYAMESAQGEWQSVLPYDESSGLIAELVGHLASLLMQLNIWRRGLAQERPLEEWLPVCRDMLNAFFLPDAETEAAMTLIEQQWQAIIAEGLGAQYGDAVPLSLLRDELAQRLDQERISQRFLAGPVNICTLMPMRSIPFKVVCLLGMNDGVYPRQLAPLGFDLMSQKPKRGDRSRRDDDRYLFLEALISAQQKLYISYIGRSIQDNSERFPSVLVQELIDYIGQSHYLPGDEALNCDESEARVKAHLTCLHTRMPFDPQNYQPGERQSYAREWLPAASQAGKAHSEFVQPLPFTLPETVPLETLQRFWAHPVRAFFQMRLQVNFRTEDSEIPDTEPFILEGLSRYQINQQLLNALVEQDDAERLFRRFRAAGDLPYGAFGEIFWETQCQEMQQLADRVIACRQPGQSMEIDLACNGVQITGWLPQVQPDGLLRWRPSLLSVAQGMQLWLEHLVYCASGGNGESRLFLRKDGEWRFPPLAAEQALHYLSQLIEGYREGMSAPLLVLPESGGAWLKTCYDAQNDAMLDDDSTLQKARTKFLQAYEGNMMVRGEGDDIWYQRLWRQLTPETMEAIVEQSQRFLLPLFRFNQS
T3 sequence (P08394 whole entry): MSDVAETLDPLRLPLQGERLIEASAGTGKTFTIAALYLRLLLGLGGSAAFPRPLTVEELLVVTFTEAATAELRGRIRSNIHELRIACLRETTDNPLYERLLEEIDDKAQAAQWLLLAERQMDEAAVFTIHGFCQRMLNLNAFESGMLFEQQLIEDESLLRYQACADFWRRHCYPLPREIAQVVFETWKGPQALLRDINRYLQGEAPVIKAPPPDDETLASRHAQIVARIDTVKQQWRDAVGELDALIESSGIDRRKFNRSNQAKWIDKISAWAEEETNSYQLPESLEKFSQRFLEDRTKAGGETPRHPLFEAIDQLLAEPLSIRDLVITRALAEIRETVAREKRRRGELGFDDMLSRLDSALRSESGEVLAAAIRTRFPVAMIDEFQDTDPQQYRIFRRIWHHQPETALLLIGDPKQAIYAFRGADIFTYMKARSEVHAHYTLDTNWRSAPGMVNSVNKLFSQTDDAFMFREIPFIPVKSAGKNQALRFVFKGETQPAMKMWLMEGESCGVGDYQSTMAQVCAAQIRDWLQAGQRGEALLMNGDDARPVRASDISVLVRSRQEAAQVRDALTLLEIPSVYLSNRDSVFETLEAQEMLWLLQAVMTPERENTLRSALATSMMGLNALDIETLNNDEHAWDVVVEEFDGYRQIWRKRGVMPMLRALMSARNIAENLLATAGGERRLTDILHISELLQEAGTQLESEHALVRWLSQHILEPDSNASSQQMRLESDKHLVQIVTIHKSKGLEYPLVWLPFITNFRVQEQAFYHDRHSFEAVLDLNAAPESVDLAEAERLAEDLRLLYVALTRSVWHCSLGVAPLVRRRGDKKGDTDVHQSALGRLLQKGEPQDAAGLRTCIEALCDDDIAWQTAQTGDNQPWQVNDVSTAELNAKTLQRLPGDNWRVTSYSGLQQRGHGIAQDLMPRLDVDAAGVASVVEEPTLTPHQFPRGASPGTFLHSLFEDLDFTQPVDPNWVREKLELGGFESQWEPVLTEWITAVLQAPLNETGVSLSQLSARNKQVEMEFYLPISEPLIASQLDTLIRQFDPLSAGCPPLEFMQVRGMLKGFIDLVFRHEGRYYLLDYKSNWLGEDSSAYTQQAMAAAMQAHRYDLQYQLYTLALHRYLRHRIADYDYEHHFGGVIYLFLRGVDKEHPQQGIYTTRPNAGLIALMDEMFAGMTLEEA

COC(=O)C1=C(C)N(Cc2ccccc2)C(NCc2ccccc2)=N[C@H]1c1cccc(F)c1
CC50 [1]: 15 µM (active)
CC50 [2]: 14.9 µM (active)
IC50 [3]: 1.25 µM (active)
IC50 [4]: > 96.6 µM (inactive)
IC50 [5]: 23.8 µM (inactive)
IC50 [6]: > 66.2 µM (inactive)
IC50 (CHO-K1): > 66.2 µM (inactive)
IC50 (cells): 19.8 µM (active)
IC50 [7]: 17.9 µM (inactive)

Cc1ccc(-c2nc3ccccc3o2)cc1NC(=O)c1ccc2c(c1)OCO2
IC50 (SUMO-activating enzyme): 34.1 µM (active)

Nc1c2cnnc-2nc(SCC(=O)c2ccc(Br)cc2)n1-c1ccc(Br)cc1
EC50 [8]: > 120 µM (not active)
EC50 [9]: > 120 µM (not active)
EC50 [10]: > 120 µM (not active)
IC50 (SUMO-activating enzyme): 59.1 µM (active)

Cc1ccc(Nc2cc3ccccc3c(=O)[nH]2)cc1
IC50 (SUMO E1/E2): 19.8 µM (active)

CC(=O)N(O)CCCCCNC(=O)CCC(=O)N(O)CCCCCNC(=O)CCC(=O)N(O)CCCCCNC(=O)CCC(=O)O
IC50 [11]: > 118 µM (inactive)
IC50 (Exodeoxyribonuclease V): > 118 µM (inactive)

Cc1ccc(C2Nc3ccc(C(=O)O)cc3C3C=CCC32)cc1 (stereo not drawn)
IC50 (SUMO E1/E2): > 100 µM (inactive)
